Experimental data: PMC4018172 (Analytical Chemistry, 2014)

Tested on: phosphorylated PKB (Ser473)
Assay: Western blot of active
Assay type: cell-based, human
Settings: PANC-1, CFPAC-1 and HPAF-II cell lysates (all three cell lines); 1 μM wortmannin for 10 min prior to lysis

## COC[C@H]1OC(=O)c2coc3c2[C@@]1(C)C1=C(C3=O)[C@@H]2CCC(=O)[C@@]2(C)C[C@H]1OC(C)=O [wortmannin]
  amount of phosphorylated Ser473 (pSer473) of PKB by Western blot: decreased
